Experimental data from patent US5473074A, “Adenosine diphosphoribose polymerase binding nitroso aromatic compounds useful as retroviral inactivating agents, anti-retroviral agents and anti-tumor agents-54” (priority 1992, dated 1995).
“Also recorded” adds a separate entry of the source.

Assays:
[1] = biological target: Zn(HIV1-F1)-oligonucleotide complex (Human immunodeficiency virus type 1 lw12.3 isolate, UniProt Q70622); test: NMR studies of Zn(HIV1-F1) nucleic acid binding; type: biochemical, HIV-1; conditions: two equivalents of NOBA (FIG. 11)
Description: The downfield regions of the spectra show the signals of the aromatic and ribose H1' protons, and the upfield region contain signals of the methyl group protons. Dramatic spectral changes occur upon addition of oligonucleotide to Zn(HIV1-F1), including large upfield shifts of the Phe 2 and Ile 10 side chain=n signals and a downfield shifting and broadening of the guanosine-H8 proton signal (second from the top).
The reaction mechanism, schematically illustrated in FIG. 12, is consistent with the result of NMR analysis in FIGS. 10 and 11. The reaction mechanism proposed in FIG. 12 is a useful model but is not intended to limit the scope of the claimed invention.

[2] = system: human peripheral blood neutrophil leukocytes; test: Superoxide generation by human neutrophils
855-2 cells [3] = test: Colony formation (CFU) in semi-solid medium, 855-2; type: cell-based, human; conditions: single cells in semi-solid medium
HIV-1 (LAV strain) = test: HIV-1 inactivation assay in PHA-stimulated PBL (FIG. 13A, B); type: cell-based
Protocol: The assay was performed as described in FIG. 13A except that the 30 min. preincubation of virus with NOBA was carried out at 0, 22 or 37° C.
An HIV-1 stock having an infectivity titer of 100,000 TCID50 was incubated for 30 min. at 22° C. with either of the drugs. Control HIV samples, containing no drugs, were incubated in the same manner. […] At the end of this incubation cultures were assayed for productive infection by an immunoassay for HIV-1 antigens and by reverse transcriptase as described in McDougal, et al., J. Immunol Methods 76:171-183 (1985). Virus titers were expressed as percentile values (percent infected cultures) compared to the controls, containing HIV dilutions which were not preincubated with the C-nitroso drugs. In a separate series of experiments, HIV-1 dilutions and C-nitroso drugs (see upper abscissa) were not preincubated but were added simultaneously to lymphocytes in exactly the same concentrations as described previously (i.e., following preincubation) and viral growth monitored 9 days later. […] Chem. Soc. 111:395-396 (1989), South, et al., Biochem Pharm. 40:123-129 (1990), Summers, et al., Biochemistry 29:329-340 (1990), the inhibition of HIV-1 propagation was profound when C-nitroso drugs were preincubated with HIV-1, whereas only negligible effect on HIV-1 growth occurred when both drugs and virus were added simultaneously.
Experiments were performed in which the incubations with NOBA was carried out at 0°, 22°, and 37° C. […] In agreement with the negligible cytotoxic effect of C-nitroso drugs on non-tumor cells described elsewhere in this application, human lymphocytes tolerated NOBA up to 50 μM without major changes in cell metabolism, which was assayed by quantitative dye reduction as described in Mosaran, J. Imm. Methods 65:55-63 (1983).

855-2 cells [4] = test: [3H]thymidine uptake / growth, 855-2 cells; type: cell-based, human
HL-60 cells = test: Colony formation (CFU) in semi-solid medium, HL-60; type: cell-based, human; conditions: single cells in semi-solid medium
[5] = system: HIV-1 (MN strain) virions; test: Zinc loss from HIV-1 virions treated with NOBA; type: biochemical
Protocol: Experiments were performed to determine if NOBA is capable of ejecting zinc from intact virions. HIV-1 (MN strain) was produced, purified and concentrated as described in Bess et al., J. Virol. 66:840-847 (1992). The concentrated virus was diluted to 60 times that of culture fluid in TNE buffer (0.01M Tris-HCl, 0.1M NaCl, 1 mM EDTA, pH 7.2) and incubated with 3000 or 6000 μM NOBA at 37° C. The virus was then pelleted and washed with TNE buffer to remove weakly bound zinc. The quantity of zinc in the resulting viral pellets was determined as described in Bess et. al., J. Virol. 66:840-847 (1992).

855-2 cells [6] = test: MTT assay, cytocidal activity; type: cell-based, human; conditions: 10 μM, 100,000 cells/ml
Protocol: MTT (3-[4,5-[…]]-2,5-diphenyltetrazolium bromide) at 1 mg/ml was then added for 16 hours. The absorbance of the pelleted cell was then measured at 550 nm after adding DMSO to solubilze the cells.

`NC(=O)c1cccc(N=O)c1` [NOBA, 3-nitrosobenzamide] was tested, and the “zinc ejection and loss of nucleic acid binding, in words” value [1] was “ejection of zinc with concomitant dissociation of the zinc finger nucleic acid complex; also recorded: NOBA-induced zinc ejection leads to loss of high-affinity nucleic acid binding function”, the “superoxide generation by human neutrophils (mean + S.D., n = 11)” value ([2]; 10 μM, 10^5 PMN + PMA (control 55.9 ± 7.7)) was 44.4 ± 10.0 nmol O2^- /hr/10^5 cells and the “superoxide generation, in words” value ([2]; 10 μm) was “Only minor reductions in superoxide generation”. The “colony formation, 855-2, in words” value (855-2 cells [3]) was “inhibit the ability of human leukemic cells (855-2 and HL-60) to form colonies”, the log reduction at 100 µM (HIV-1 (LAV strain); Human immunodeficiency virus 1, 0.5 h, 100 μM, 30 min, 22° C., 9 days, read-out: decrease of infectious virus available to cause 50% infected cultures) was 4 and the “relative depression of HIV-1 propagation, in words” value (HIV-1 (LAV strain); NOBA vs NOBP) was “greater depression of HIV-1 propagation”. The “temperature of maximal inactivation of HIV-1” value (HIV-1 (LAV strain); preincubation at 0°, 22° and 37° C.) was 37 °C, the “growth arrest of 855-2 cells at increasing serum concentration” value (855-2 cells [4]; 10 μM, increasing FCS) was “Growth arrest occurs irrespective of the concentration of FCS” and the “relative potency, 855-2” value (855-2 cells [4]; 10% fetal bovine serum) was “potent inhibitory effects regardless of the source of growth factor activity”. For the same molecule, the “colony formation, HL-60, in words” value (HL-60 cells) was “inhibit the ability of human leukemic cells (855-2 and HL-60) to form colonies”, the “Zinc Loss” value ([5]; 3,000 μM, 2 h, 37° C.) was 52% and the “Zinc, NOBA-Treated Sample” value ([5]; 3,000 μM, 2 h, 37° C., control 0.21) was 0.11 µg/mL. The “Zinc Loss” value ([5]; 6,000 μM, 4 h, 37° C.) was 83%, the “Zinc, NOBA-Treated Sample” value ([5]; 6,000 μM, 4 h, 37° C., control 0.24) was 0.04 µg/mL and the “losses of the viral zinc” value ([5]; 3000 or 6000 μM, 37° C.) was 50-83%. The “infectivity of HIV-1 virions, in words” value ([5]; concentrated suspensions (60×)) was “complete loss of infectivity”, the “loss of viral proteins in the pellet, in words” value ([5]; p24 and gp120 competition RIA, SDS-PAGE) was “No significant loss of viral proteins” and the “killing of 855-2 cells (MTT), in words” value (855-2 cells [6]) was “complete killing”.
